This note sets out measurements from patent US10562857B2 (AFASCI, Inc., priority 2015, dated 2020).

As usually defined, the IC50 is the concentration that gives 50% inhibition.

One assay addresses T1, Cav3.2 channel (Homo sapiens, UniProt O95180).
T1 construct: expressed in transfected cells; host or cells: HEK-293, tetracycline inducible expression system (Invitrogen)
Kind of assay: Whole-cell patch clamp of T-type Cav3.2 channel expressed in HEK293 cells. Format: cell-based. Background: Patch clamp records ionic current or voltage across a cell membrane.

The next assay concerns DRG ion channels K+. Kind of assay: Potassium currents in DRG neurons, patch clamp. Type of assay: cell-based, rodent. Particulars: Table 2. On the procedure:
All the procedures related to animal handling were in strict accordance with NIH guidelines and IACUC approved protocols. Briefly, the spine was taken out and split into two halves from the middle line after sacrificing the mice by decapitation. […] The DRG neurons were minced with fine scissors and incubated at 35° C. for 50 min. […] Finally the cells were dispersed onto poly-1-ornithine-coated cover slips and maintained in a modified Krebs solution with streptomycin sulfate (0.2 mM), Penicillin G Sodium (0.3 mM), and Gentamycin (0.1 mM) at 21° C. […] All experiments were performed at room temperature (around 21° C.). Whole-cell currents were recorded using a MultiClamp 700B amplifier and analyzed offline with pCLAMP10.4 software (Molecular Devices, LLC, Sunnyvale Calif., USA). […] The internal solution was composed (in mM) of 125 CsCl, 10 HEPES (acid), 10 EGTA (ethylene glycol tetraacetic acid), 1 CaCl2, 1 MgCl2, 4 MgATP and 0.3 […] 7.3-7.4 adjusted with CsOH; osmolality verified as 295 mOsm/kg). Since the sodium ions were absent in the external solution, tetrodoctoxin was not needed. […] To record sodium (Na^+) currents in DRG neurons, the external solution used the modified Krebs solution specified above. […] To record potassium currents in DRG neurons, the external solution used the modified Kreb's solution specified above. The internal solution was composed (in mM) of 65 KCl, 80 KF, 5 KOH, 10 EGTA, 2 MgATP (pH 7.3-7.4 adjusted with KOH). Recording electrodes were fabricated using a P-87 puller (Sutter Instrument Co., Novato, Calif., USA). […] All reagents were purchased from Sigma unless specified otherwise. […] Selectivity among the three subtypes of the Cav3 T-type channel, and off-target effects on other key ion channels of the representative example compounds are presented in Table 2. Sodium and potassium channels in the rodent DRG neurons were recorded and tested as described above. The human ether-a-go-go-related gene (hERG) encodes the rapidly activating potassium channel (IKr) contributing to the repolarization of the cardiac action potential. The blockade of hERG can lead to a QT prolongation in the electrocardiogram known as long QT syndrome (Sanguinetti, et al., 1995). Therefore the representative example compounds in Table 2 were tested against the hERG channel.

Where [1] appears, read: Table 1, tested at at least 4 concentrations, read-out: IC50.
Setting [2] is: Table 3A, read-out: Cav3.2 IC50.

Each structure is given as a SMILES string. Read-outs that look alike come from different tables or passages of the source. Bounds are passed on as bounds.

T1 sequence (O95180 whole entry): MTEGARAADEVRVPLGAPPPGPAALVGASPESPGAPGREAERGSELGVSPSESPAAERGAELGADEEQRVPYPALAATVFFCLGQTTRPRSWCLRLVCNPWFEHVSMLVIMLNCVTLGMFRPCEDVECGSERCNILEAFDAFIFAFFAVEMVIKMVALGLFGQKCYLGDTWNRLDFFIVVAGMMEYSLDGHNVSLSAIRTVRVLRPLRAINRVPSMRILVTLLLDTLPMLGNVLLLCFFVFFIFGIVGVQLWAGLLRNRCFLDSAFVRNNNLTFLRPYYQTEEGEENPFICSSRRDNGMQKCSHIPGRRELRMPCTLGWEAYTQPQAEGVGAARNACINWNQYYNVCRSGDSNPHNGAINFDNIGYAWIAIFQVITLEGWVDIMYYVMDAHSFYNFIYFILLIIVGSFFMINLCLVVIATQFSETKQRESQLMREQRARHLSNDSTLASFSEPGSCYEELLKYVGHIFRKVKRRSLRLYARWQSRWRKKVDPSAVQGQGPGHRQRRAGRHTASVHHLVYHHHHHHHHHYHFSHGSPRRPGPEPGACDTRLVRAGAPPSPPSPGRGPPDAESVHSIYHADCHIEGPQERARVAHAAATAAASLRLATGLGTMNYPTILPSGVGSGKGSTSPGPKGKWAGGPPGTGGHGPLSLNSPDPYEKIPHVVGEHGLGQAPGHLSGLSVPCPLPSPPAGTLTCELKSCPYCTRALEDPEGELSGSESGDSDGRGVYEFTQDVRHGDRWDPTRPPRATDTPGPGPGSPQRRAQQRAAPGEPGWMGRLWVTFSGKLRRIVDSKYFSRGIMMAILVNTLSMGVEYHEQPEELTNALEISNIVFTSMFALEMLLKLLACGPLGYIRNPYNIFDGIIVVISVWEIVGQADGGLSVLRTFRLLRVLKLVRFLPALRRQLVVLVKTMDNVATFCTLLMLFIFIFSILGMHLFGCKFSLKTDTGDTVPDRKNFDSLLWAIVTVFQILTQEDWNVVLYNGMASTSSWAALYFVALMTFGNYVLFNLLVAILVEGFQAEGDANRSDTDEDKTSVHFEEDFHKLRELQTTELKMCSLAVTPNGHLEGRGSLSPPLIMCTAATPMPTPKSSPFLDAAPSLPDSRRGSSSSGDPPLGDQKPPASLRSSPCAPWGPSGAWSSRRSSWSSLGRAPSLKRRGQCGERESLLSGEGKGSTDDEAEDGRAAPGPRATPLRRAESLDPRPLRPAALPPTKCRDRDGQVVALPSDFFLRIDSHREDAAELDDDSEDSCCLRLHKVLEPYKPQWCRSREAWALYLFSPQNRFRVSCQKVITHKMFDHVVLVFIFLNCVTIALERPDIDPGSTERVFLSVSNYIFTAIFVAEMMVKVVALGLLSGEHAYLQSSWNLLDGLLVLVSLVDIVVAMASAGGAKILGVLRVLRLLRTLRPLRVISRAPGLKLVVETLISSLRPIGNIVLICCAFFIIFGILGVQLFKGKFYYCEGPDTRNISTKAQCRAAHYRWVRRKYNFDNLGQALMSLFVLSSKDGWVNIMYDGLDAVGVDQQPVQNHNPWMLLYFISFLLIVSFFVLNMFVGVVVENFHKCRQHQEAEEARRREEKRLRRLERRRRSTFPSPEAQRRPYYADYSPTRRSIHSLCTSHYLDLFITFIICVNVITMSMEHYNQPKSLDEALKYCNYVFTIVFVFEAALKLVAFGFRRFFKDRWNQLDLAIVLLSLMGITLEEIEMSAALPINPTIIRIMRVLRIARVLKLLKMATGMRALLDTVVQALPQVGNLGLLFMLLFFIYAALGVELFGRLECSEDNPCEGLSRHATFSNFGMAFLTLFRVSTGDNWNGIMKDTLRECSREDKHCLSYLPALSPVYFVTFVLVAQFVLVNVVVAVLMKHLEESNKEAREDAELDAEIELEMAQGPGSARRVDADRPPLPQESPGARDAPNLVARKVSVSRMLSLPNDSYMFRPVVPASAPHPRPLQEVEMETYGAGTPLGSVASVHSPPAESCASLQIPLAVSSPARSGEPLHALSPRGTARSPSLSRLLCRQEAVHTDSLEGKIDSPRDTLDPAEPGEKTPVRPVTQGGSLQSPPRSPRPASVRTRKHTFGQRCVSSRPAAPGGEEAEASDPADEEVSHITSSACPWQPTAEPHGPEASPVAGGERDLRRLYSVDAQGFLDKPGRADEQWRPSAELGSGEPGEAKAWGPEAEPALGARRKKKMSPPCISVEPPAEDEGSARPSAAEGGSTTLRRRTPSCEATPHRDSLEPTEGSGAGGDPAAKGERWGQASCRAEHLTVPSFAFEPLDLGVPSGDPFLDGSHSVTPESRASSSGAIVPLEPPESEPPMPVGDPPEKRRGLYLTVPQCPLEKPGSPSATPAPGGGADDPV

As to `CC(C)(C)NC(=O)CN1CCC2(CC1)C[C@H]2NC(=O)c1cc(F)cc(C(F)(F)F)c1` (single isomer, unassigned) [Example 130, (R)—N-(6-(2-(tert-Butylamino)-2-oxoethyl)-6-azaspiro[2.5]octan-1-yl)-3-fluoro-5-(trifluoromethyl)benzamide or (S)—N-(6-(2-(tert-Butylamino)-2-oxoethyl)-6-azaspiro[2.5]octan-1-yl)-3-fluoro-5-(trifluoromethyl)benzamide], the IC50 at Cav3.2 channel (setting [1]) was 180 nM; on Cav3.2 channel (Table 2, read-out: Cav3.2 IC50), 180 nM; with DRG ion channels K+, more than 100000 nM.
For `CC(C)(C)CCN1C[C@@H]2[C@@H](CNC(=O)c3cc(Cl)cc(Cl)c3)[C@@H]2C1` [ML218, 3,5-Dichloro-N-[[(1α,5α,6-exo,6α)-3-(3,3-dimethylbutyl)-3-azabicyclo[3.1.0]hex-6-yl]methyl]benzamide, reference compound], the IC50 turned out to be 310 nM on Cav3.2 channel (Table 2, read-out: Cav3.2 IC50); 310 nM at Cav3.2 channel (setting [2]); 79700 nM in the assay with DRG ion channels K+. The “% Use-Dep (use-dependent drug action)” value at Cav3.2 channel (Table 3A) was 19.2%.
Consider `CC(C)(C)NC(=O)CN1CCC2(CC1)CC2C(=O)Nc1cc(F)cc(C(F)(F)F)c1` (centres unmarked) [Example 141, 6-(2-(tert-Butylamino)-2-oxoethyl)-N-(3-fluoro-5-(trifluoromethyl)phenyl)-6-azaspiro[2.5]octane-1-carboxamide], for which the IC50 was 180 nM on Cav3.2 channel (setting [1]); 180 nM on Cav3.2 channel (Table 2, read-out: Cav3.2 IC50); more than 30000 nM in the assay with DRG ion channels K+.
For the compound `CC(C)(C)CCN1CCC2(CC1)C[C@H]2NC(=O)c1cc(C(F)(F)F)cc(C(F)(F)F)c1` (single isomer, unassigned) [Example 146, (R)—N-(6-(3,3-dimethylbutyl)-6-azaspiro[2.5]octan-1-yl)-3,5-bis(trifluoromethyl)benzamide or (S)—N-(6-(3,3-dimethylbutyl)-6-azaspiro[2.5]octan-1-yl)-3,5-bis(trifluoromethyl)benzamide], the IC50 is 70 nM on Cav3.2 channel (setting [1]); 70 nM on Cav3.2 channel (Table 2, read-out: Cav3.2 IC50); more than 100000 nM with DRG ion channels K+.
In the case of `CC(C)(C)NC(=O)CN1CCC(CNC(=O)c2cc(F)cc(Cl)c2)CC1` [Z944, reference compound], the IC50 at Cav3.2 channel (Table 2, read-out: Cav3.2 IC50) is 190 nM; on Cav3.2 channel (setting [2]), 200 nM; in the assay on DRG ion channels K+, more than 30000 nM. Besides, the “% Use-Dep (use-dependent drug action)” value on Cav3.2 channel (Table 3A) was found to be 17.6%.
Take `CC(C)(C)NC(=O)CN1CCC2(CC1)C[C@H]2NC(=O)c1cc(Cl)cc(Cl)c1` (single isomer, unassigned) [Example 57, (R)—N-(6-(2-(tert-Butylamino)-2-oxoethyl)-6-azaspiro[2.5]octan-1-yl)-3,5-dichlorobenzamide or (S)—N-(6-(2-(tert-Butylamino)-2-oxoethyl)-6-azaspiro[2.5]octan-1-yl)-3,5-dichlorobenzamide]: the IC50 at Cav3.2 channel (setting [1]) was 60 nM; on Cav3.2 channel (Table 2, read-out: Cav3.2 IC50), 60 nM; in the assay with DRG ion channels K+, more than 100000 nM.
Consider `O=C(Nc1nnc(-c2ccccc2)o1)c1ccc(Cl)s1` [Example 115, 5-Chloro-N-(5-phenyl-1,3,4-oxadiazol-2-yl)thiophene-2-carboxamide], for which, on Cav3.2 channel (setting [1]), the IC50 was found to be 930 nM.
Take `CC(C)(C)CCN1CCC2(CC1)C[C@H]2NC(=O)c1cc(C(F)(F)F)ccc1Cl` (single isomer, unassigned) [Example 147, (R)-2-Chloro-N-(6-(3,3-dimethylbutyl)-6-azaspiro[2.5]octan-1-yl)-5-(trifluoromethyl)benzamide or (S)-2-Chloro-N-(6-(3,3-dimethylbutyl)-6-azaspiro[2.5]octan-1-yl)-5-(trifluoromethyl)benzamide]: the IC50 on Cav3.2 channel (setting [1]) was 130 nM; at Cav3.2 channel (Table 2, read-out: Cav3.2 IC50), 130 nM; in the assay with DRG ion channels K+, more than 100000 nM.
With `CC(C)(C)NC(=O)CN1CCC2(CC1)C[C@H]2NC(=O)C12CC3CC(CC(C3)C1)C2` (single isomer, unassigned) [Example 145, N—((R)-6-(2-(tert-butylamino)-2-oxoethyl)-6-azaspiro[2.5]octan-1-yl)adamantane-1-carboxamide or N—((S)-6-(2-(tert-butylamino)-2-oxoethyl)-6-azaspiro[2.5]octan-1-yl)adamantane-1-carboxamide], the IC50 on Cav3.2 channel (setting [1]) was 140 nM; on Cav3.2 channel (Table 2, read-out: Cav3.2 IC50) it was 140 nM; in the assay with DRG ion channels K+, more than 30000 nM.
On to `CC(C)(C)CCN1CCC2(CC1)CC2NC(=O)c1cc(F)cc(Cl)c1` (centres unmarked) [Example 28, 3-Chloro-N-(6-(3,3-dimethylbutyl)-6-azaspiro[2.5]octan-1-yl)-5-fluorobenzamide], for which the IC50 was 70 nM at Cav3.2 channel (setting [1]); 70 nM at Cav3.2 channel (Table 2, read-out: Cav3.2 IC50); approximately 100000 nM in the assay on DRG ion channels K+.
As to `CC(C)(C)NC(=O)CN1CCC2(CC1)C[C@H]2NC(=O)c1cc(F)cc(Cl)c1` (single isomer, unassigned) [Example 129, (R)—N-(6-(2-(tert-Butylamino)-2-oxoethyl)-6-azaspiro[2.5]octan-1-yl)-3-chloro-5-fluorobenzamide or (S)—N-(6-(2-(tert-Butylamino)-2-oxoethyl)-6-azaspiro[2.5]octan-1-yl)-3-chloro-5-fluorobenzamide], the IC50 is 870 nM on Cav3.2 channel (setting [1]); 870 nM on Cav3.2 channel (Table 2, read-out: Cav3.2 IC50); more than 100000 nM with DRG ion channels K+.
Take `CC(C)(C)NC(=O)CN1CCC2(CC1)CC2NC(=O)c1cc(F)cc(Cl)c1` (single isomer, unassigned) [Example 128, (S)—N-(6-(2-(tert-Butylamino)-2-oxoethyl)-6-azaspiro[2.5]octan-1-yl)-3-chloro-5-fluorobenzamide or (R)—N-(6-(2-(tert-Butylamino)-2-oxoethyl)-6-azaspiro[2.5]octan-1-yl)-3-chloro-5-fluorobenzamide]: the IC50 was 110 nM at Cav3.2 channel (setting [1]); 90 nM on Cav3.2 channel (Table 2, read-out: Cav3.2 IC50); 89 nM on Cav3.2 channel (setting [2]); more than 100000 nM in the assay with DRG ion channels K+. The “% Use-Dep (use-dependent drug action)” value at Cav3.2 channel (Table 3A) came to 21.3%.
`CC(C)(C)NC(=O)CN1CCC2(CC1)C[C@H]2NC(=O)c1cc(C(F)(F)F)cc(C(F)(F)F)c1` (single isomer, unassigned) [Example 144, ((R)—N-(6-(2-(tert-butylamino)-2-oxoethyl)-6-azaspiro[2.5]octan-1-yl)-3,5-bis(trifluoromethyl)benzamide or (S)—N-(6-(2-(tert-butylamino)-2-oxoethyl)-6-azaspiro[2.5]octan-1-yl)-3,5-bis(trifluoromethyl)benzamide]: the IC50 at Cav3.2 channel (setting [1]) was 80 nM; on Cav3.2 channel (Table 2, read-out: Cav3.2 IC50), 80 nM; with DRG ion channels K+, more than 30000 nM.
With `CC(C)(C)NC(=O)CN1CCC2(CC1)CC2NC(=O)c1cc(F)cc(Cl)c1` (centres unmarked) [Example 17, N-(6-(2-(tert-Butylamino)-2-oxoethyl)-6-azaspiro[2.5]octan-1-yl)-3-chloro-5-fluorobenzamide], the IC50 at Cav3.2 channel (setting [1]) was 240 nM; on Cav3.2 channel (Table 2, read-out: Cav3.2 IC50), 240 nM; in the assay with DRG ion channels K+, more than 100000 nM.
Take `CC(C)(C)NC(=O)CN1CCC2(CC1)C[C@H]2C(=O)Nc1cc(C(F)(F)F)cc(C(F)(F)F)c1` (single isomer, unassigned) [Example 132, (R)—N-(3,5-Bis(trifluoromethyl)phenyl)-6-(2-(tert-butylamino)-2-oxoethyl)-6-azaspiro[2.5]octane-1-carboxamide or (S)—N-(3,5-Bis(trifluoromethyl)phenyl)-6-(2-(tert-butylamino)-2-oxoethyl)-6-azaspiro[2.5]octane-1-carboxamide]: the results for the IC50 on Cav3.2 channel (read-out: Cav3.2 IC50), on Cav3.2 channel (read-out: IC50) and in the assay with DRG ion channels K+ were 140 nM, 140 nM and more than 100000 nM, respectively.
